According to PubChem BioAssay AID220 (DTP/NCI, 2004):
“And” between values parts separate entries of the source, which are not always exact repeats. Equal entries are not always repeated. Inconclusive results are not listed.

Test system: CD8F1 mice, subcutaneous mammary adenocarcinoma, T/C%
Experiment: NCI In Vivo Anticancer Drug Screen. Data for tumor model Mammary Adenocarcinoma CD8F1 (subcutaneous) in CD8F1
Conditions: higher = larger tumour
Procedure, shortened: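 Tumor-bearing mice, transplantable model; readout survival or tumor size; value = treated (T) / vehicle control (C).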

[1] = endpoint: median tumor weight change, dose: 250.0 mg/kg/injection, schedule: Q01DX001 (ip), vehicle: saline
[2] = endpoint: median tumor weight change, dose: 500.0 mg/kg/injection, schedule: Q01DX001 (ip), vehicle: saline
[3] = endpoint: median tumor weight (est.), dose: 12.5 mg/kg/injection, schedule: Q07DX005 (ip), vehicle: saline with Tween-80
[4] = endpoint: median tumor weight (est.), dose: 25.0 mg/kg/injection, schedule: Q07DX005 (ip), vehicle: saline with Tween-80

CCOC(=O)C(N)CSC(=O)NC (stereo unspecified)
T/C (endpoint: median tumor weight change, dose: 100.0 mg/kg/injection, schedule: Q01DX001 (ip), vehicle: saline): 115 % of control | T/C (endpoint: median tumor weight change, dose: 200.0 mg/kg/injection, schedule: Q01DX001 (ip), vehicle: saline): 81 % of control | T/C [1]: 91 % of control and 111 % of control | T/C (endpoint: median tumor weight change, dose: 400.0 mg/kg/injection, schedule: Q01DX001 (ip), vehicle: saline): 86 % of control | T/C [2]: 53 % of control and 74 % of control | T/C (endpoint: median tumor weight change, dose: 800.0 mg/kg/injection, schedule: Q01DX001 (ip), vehicle: saline): 96 % of control

CN1CCN(c2ccc([N+](=O)[O-])c3no[n+]([O-])c23)CC1
T/C (endpoint: median tumor weight (est.), dose: 5.0 mg/kg/injection, schedule: Q07DX005 (ip), vehicle: saline with Tween-80): 95 % of control | T/C (endpoint: median tumor weight (est.), dose: 10.0 mg/kg/injection, schedule: Q07DX005 (ip), vehicle: saline with Tween-80): 115 % of control | T/C (endpoint: median tumor weight (est.), dose: 20.0 mg/kg/injection, schedule: Q07DX005 (ip), vehicle: saline with Tween-80): 75 % of control

COc1ccc(C(=O)C(CN(C)C)CN(C)C)cc1
T/C (endpoint: median tumor weight change, dose: 7.81 mg/kg/injection, schedule: Q01DX001 (ip), vehicle: saline): 103 % of control | T/C (endpoint: median tumor weight change, dose: 15.62 mg/kg/injection, schedule: Q01DX001 (ip), vehicle: saline): 88 % of control | T/C (endpoint: median tumor weight change, dose: 31.25 mg/kg/injection, schedule: Q01DX001 (ip), vehicle: saline): 84 % of control

CC[C@@]1(O)C(=O)OCc2c1cc1n(c2=O)Cc2cc3ccccc3nc2-1
T/C (endpoint: median tumor weight change, dose: 1.5 mg/kg/injection, schedule: Q01DX001 (ip), vehicle: saline with Tween-80): 64 % of control | T/C (endpoint: median tumor weight change, dose: 6.0 mg/kg/injection, schedule: Q01DX001 (ip), vehicle: saline with Tween-80): 56 % of control and 73 % of control | T/C (endpoint: median tumor weight change, dose: 12.0 mg/kg/injection, schedule: Q01DX001 (ip), vehicle: saline with Tween-80): 62 % of control | T/C (endpoint: median tumor weight change, dose: 24.0 mg/kg/injection, schedule: Q01DX001 (ip), vehicle: saline with Tween-80): 5 % of control and 10 % of control

COC(C(=O)C(O)C(C)O)C1Cc2cc3cc(OC4CC(OC(C)=O)C(OC5CC(O)C(OC)C(C)O5)C(C)O4)cc(O)c3c(O)c2C(=O)C1OC1CC(OC2CC(OC3CC(C)(O)C(OC(=O)C(C)C)C(C)O3)C(O)C(C)O2)C(O)C(C)O1 (stereo unspecified)
T/C (endpoint: median tumor weight (est.), dose: 0.5 mg/kg/injection, schedule: Q07DX005 (ip), vehicle: saline): 76 % of control | T/C (endpoint: median tumor weight (est.), dose: 1.0 mg/kg/injection, schedule: Q07DX005 (ip), vehicle: saline): 30 % of control | T/C (endpoint: median tumor weight (est.), dose: 2.0 mg/kg/injection, schedule: Q07DX005 (ip), vehicle: saline): 34 % of control

CC[C@@]1(O)C(=O)OCc2c1cc1n(c2=O)Cc2cc3cc(O)ccc3nc2-1
T/C (endpoint: median tumor weight change, dose: 1.85 mg/kg/injection, schedule: Q01DX001 (ip), vehicle: saline): 97 % of control | T/C (endpoint: median tumor weight change, dose: 7.5 mg/kg/injection, schedule: Q01DX001 (ip), vehicle: saline): 107 % of control | T/C (endpoint: median tumor weight change, dose: 15.0 mg/kg/injection, schedule: Q01DX001 (ip), vehicle: saline): 80 % of control | T/C (endpoint: median tumor weight change, dose: 30.0 mg/kg/injection, schedule: Q01DX001 (ip), vehicle: saline): 28 % of control

CC1CN1P1(N2CC2C)=NP(N2CC2C)(N2CC2C)=NP(N2CC2C)(N2CC2C)=N1 (stereo unspecified)
T/C (endpoint: mean tumor weight, dose: 12.5 mg/kg/injection, schedule: Q04DX005 (ip), vehicle: saline): 61 % of control | T/C (endpoint: mean tumor weight, dose: 25.0 mg/kg/injection, schedule: Q04DX005 (ip), vehicle: saline): 97 % of control | T/C (endpoint: mean tumor weight, dose: 25.0 mg/kg/injection, schedule: Q07DX005 (ip), vehicle: saline): 119 % of control | T/C (endpoint: mean tumor weight, dose: 50.0 mg/kg/injection, schedule: Q04DX005 (ip), vehicle: saline): 66 % of control | T/C (endpoint: mean tumor weight, dose: 50.0 mg/kg/injection, schedule: Q07DX005 (ip), vehicle: saline): 92 % of control | T/C (endpoint: mean tumor weight, dose: 100.0 mg/kg/injection, schedule: Q04DX005 (ip), vehicle: saline): 13 % of control | T/C (endpoint: mean tumor weight, dose: 100.0 mg/kg/injection, schedule: Q07DX005 (ip), vehicle: saline): 49 % of control | T/C (endpoint: median tumor weight (est.), dose: 25.0 mg/kg/injection, schedule: Q07DX005 (ip), vehicle: saline): 70 % of control | T/C (endpoint: median tumor weight (est.), dose: 100.0 mg/kg/injection, schedule: Q07DX005 (ip), vehicle: saline): 6 % of control and 11 % of control

CC(C)C(N)C(=O)Nc1nncs1 (stereo unspecified)
T/C (endpoint: median tumor weight change, dose: 125.0 mg/kg/injection, schedule: Q01DX001 (ip), vehicle: saline): 119 % of control | T/C [1]: 171 % of control | T/C [2]: 82 % of control | T/C (endpoint: median tumor weight change, dose: 1000.0 mg/kg/injection, schedule: Q01DX001 (ip), vehicle: saline): 81 % of control

c1ccc2c(c1)nnn1c3cnccc3nc21
T/C (endpoint: median tumor weight (est.), dose: 3.12 mg/kg/injection, schedule: Q07DX005 (ip), vehicle: saline with Tween-80): 115 % of control | T/C (endpoint: median tumor weight (est.), dose: 6.25 mg/kg/injection, schedule: Q07DX005 (ip), vehicle: saline with Tween-80): 85 % of control | T/C [3]: 105 % of control | T/C [4]: 124 % of control

CC(=O)Nc1cscc1NC(C)=O
T/C (endpoint: median tumor weight change, dose: 250.0 mg/kg/injection, schedule: Q01DX001 (ip), vehicle: saline with Tween-80): 73 % of control and 85 % of control | T/C (endpoint: median tumor weight change, dose: 500.0 mg/kg/injection, schedule: Q01DX001 (ip), vehicle: saline with Tween-80): 71 % of control and 73 % of control | T/C (endpoint: median tumor weight change, dose: 1000.0 mg/kg/injection, schedule: Q01DX001 (ip), vehicle: saline with Tween-80): 74 % of control and 91 % of control

COC(=O)[C@@]12OC[C@]34[C@H]([C@@H](O)[C@@H]1O)[C@@]1(C)CC(=O)C(O)=C(C)[C@@H]1C[C@H]3OC(=O)[C@H](OC(=O)/C=C(\C)C(C)C)[C@@H]24
T/C (endpoint: median tumor weight (est.), dose: 0.25 mg/kg/injection, schedule: Q07DX005 (ip), vehicle: saline + alcohol): 99 % of control | T/C (endpoint: median tumor weight (est.), dose: 0.5 mg/kg/injection, schedule: Q07DX005 (ip), vehicle: saline + alcohol): 92 % of control | T/C (endpoint: median tumor weight (est.), dose: 1.0 mg/kg/injection, schedule: Q07DX005 (ip), vehicle: saline + alcohol): 104 % of control | T/C (endpoint: median tumor weight change, dose: 1.0 mg/kg/injection, schedule: Q01DX001 (ip), vehicle: saline + alcohol): 85 % of control | T/C (endpoint: median tumor weight change, dose: 2.0 mg/kg/injection, schedule: Q01DX001 (ip), vehicle: saline + alcohol): 81 % of control | T/C (endpoint: median tumor weight change, dose: 4.0 mg/kg/injection, schedule: Q01DX001 (ip), vehicle: saline + alcohol): 93 % of control

O=C(O)C(O)C(O)C1[O][Sb][O]C1C(=O)O (stereo unspecified)
T/C (endpoint: median tumor weight change, dose: 31.0 mg/kg/injection, schedule: Q01DX001 (ip), vehicle: saline): 115 % of control | T/C (endpoint: median tumor weight change, dose: 62.0 mg/kg/injection, schedule: Q01DX001 (ip), vehicle: saline): 93 % of control

COc1cccc2c1C(=O)c1c(O)c3c(c(O)c1C2=O)C[C@@](O)(/C(C)=N/NC(=O)c1ccccc1)C[C@@H]3OC1CC(N)C(O)C(C)O1 (stereo partly specified)
T/C (endpoint: median tumor weight (est.), dose: 3.12 mg/kg/injection, schedule: Q07DX005 (ip), vehicle: water): 263 % of control | T/C (endpoint: median tumor weight (est.), dose: 6.25 mg/kg/injection, schedule: Q07DX005 (ip), vehicle: water): 82 % of control

Cc1ccccc1-[n+]1noc(N)n1
T/C (endpoint: median tumor weight change, dose: 31.25 mg/kg/injection, schedule: Q01DX001 (ip), vehicle: water): 72 % of control | T/C (endpoint: median tumor weight change, dose: 62.5 mg/kg/injection, schedule: Q01DX001 (ip), vehicle: water): 87 % of control | T/C (endpoint: median tumor weight change, dose: 125.0 mg/kg/injection, schedule: Q01DX001 (ip), vehicle: water): 29 % of control

O=C1NC(=O)/C(=C/C=C/c2ccccc2)S1
T/C [3]: 66 % of control | T/C [4]: 100 % of control | T/C (endpoint: median tumor weight (est.), dose: 100.0 mg/kg/injection, schedule: Q07DX005 (ip), vehicle: saline with Tween-80): 81 % of control | T/C (endpoint: median tumor weight (est.), dose: 200.0 mg/kg/injection, schedule: Q07DX005 (ip), vehicle: saline with Tween-80): 101 % of control

CC1(C)CC23C4COC(=O)C2CCC1C3CC4=O (stereo unspecified)
T/C (endpoint: median tumor weight (est.), dose: 18.0 mg/kg/injection, schedule: Q07DX005 (ip), vehicle: DMSO): 72 % of control | T/C (endpoint: median tumor weight (est.), dose: 18.0 mg/kg/injection, schedule: Q07DX005 (ip), vehicle: Klucel (hydroxypropylcellulose) (HPC)): 98 % of control | T/C (endpoint: median tumor weight (est.), dose: 36.0 mg/kg/injection, schedule: Q07DX005 (ip), vehicle: DMSO): 79 % of control | T/C (endpoint: median tumor weight (est.), dose: 36.0 mg/kg/injection, schedule: Q07DX005 (ip), vehicle: Klucel (hydroxypropylcellulose) (HPC)): 89 % of control | T/C (endpoint: median tumor weight (est.), dose: 72.0 mg/kg/injection, schedule: Q07DX005 (ip), vehicle: Klucel (hydroxypropylcellulose) (HPC)): 97 % of control | T/C (endpoint: median tumor weight (est.), dose: 144.0 mg/kg/injection, schedule: Q07DX005 (ip), vehicle: Klucel (hydroxypropylcellulose) (HPC)): 71 % of control | T/C (endpoint: median tumor weight (est.), dose: 288.0 mg/kg/injection, schedule: Q07DX005 (ip), vehicle: DMSO): 87 % of control | T/C (endpoint: median tumor weight (est.), dose: 288.0 mg/kg/injection, schedule: Q07DX005 (ip), vehicle: Klucel (hydroxypropylcellulose) (HPC)): 66 % of control

COC(=O)[C@@H]1c2cc3c(c(O)c2[C@@H](OC)C[C@@]1(C)O)C(=O)c1c(O)cc2c(c1C3=O)OC1O[C@@]2(C)[C@H](O)[C@@H](N(C)C)[C@@H]1O
T/C (endpoint: median tumor weight (est.), dose: 12.5 mg/kg/injection, schedule: Q07DX005 (ip), vehicle: suspension in saline): 73 % of control | T/C (endpoint: median tumor weight (est.), dose: 50.0 mg/kg/injection, schedule: Q07DX005 (ip), vehicle: suspension in saline): 61 % of control and 66 % of control | T/C (endpoint: median tumor weight (est.), dose: 100.0 mg/kg/injection, schedule: Q07DX005 (ip), vehicle: suspension in saline): 151 % of control
